This passage reports Activity and inhibition results from ChEMBL document CHEMBL6153083, “Synthesis, Structural Modification, and Antismall Cell Lung Cancer Activity of 3-Arylisoquinolines with Dual Inhibitory Activity on Topoisomerase I and II” (J Med Chem, 2025).

In one test the test system is NCI-H1048. In words: Induction of mitochondrial membrane permeability in human NCI-H1048 cells assessed as increase in cytochrome C release at 1 to 8 uM incubated for 48 hrs by Western blot analysis. The class given is functional, cell-based. The conditions noted are these: dose 1-8 µM.
The nature of test [1]: Inhibition of PI3K/AKT/mTOR signalling pathway in human NCI-H1048 cells assessed as decrease in PI3K phosphorylation at 1 to 8 uM incubated for 48 hrs by Western blot analysis. Format: cell-based. The following applies: dose 1-8 µM.

The structures appear in SMILES notation. Active and inactive are the calls of the source. The rule behind the calls is not given here.

Regarding `CC1CC(C)CN(Cc2cc3c(cc2-c2cc4ccc5c(c4cn2)OCO5)OCO3)C1` (configuration not stated), the result with NCI-H1048 was Active. For the same compound, the inhibition result in test [1] is “Active; Pronounced Effect Was Observed In Human Nci-H1048 Cells Than In Human Nci-H446 Cells”.
